Reference: patent publication US20260056197A1, “METHOD FOR MEASURING TRACP-5b AND KIT THEREFOR” (NITTO BOSEKI CO., LTD., priority 2023, published 2026)

Experiments:
Type in all cases: biochemical
[1] = molecular target: T1, TRACP-5a (Homo sapiens, UniProt P13686); test: Evaluation of TRACP-5a inhibitor in EIA method; details: for 5b/5a ratio: Table 14, 0.1 mass % evaluation compound in chromogenic substrate solution, control without compound 1.3; for Abs. 405 nm 5a: Table 14, antibody-immobilized plate, 0.1 mass % evaluation compound in chromogenic substrate solution, 7 U/L TRACP-5a solution, control without compound 0.1956
T1 construct: purchased R&D Systems, Inc
T1 sequence (P13686 22-325): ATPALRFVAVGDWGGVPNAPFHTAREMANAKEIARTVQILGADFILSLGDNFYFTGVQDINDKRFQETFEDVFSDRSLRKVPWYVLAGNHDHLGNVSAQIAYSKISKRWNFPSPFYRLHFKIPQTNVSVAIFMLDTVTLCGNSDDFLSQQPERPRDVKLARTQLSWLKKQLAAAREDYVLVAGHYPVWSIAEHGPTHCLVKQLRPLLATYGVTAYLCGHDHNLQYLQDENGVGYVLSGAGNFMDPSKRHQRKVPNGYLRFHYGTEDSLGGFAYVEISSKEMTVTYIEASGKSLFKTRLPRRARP
Description: (§1) A TRACP-5b monoclonal antibody (Accession Number IPOD FERM BP-7890) was diluted with PBS (8 mM disodium hydrogenphosphate, 1.5 mM sodium dihydrogenphosphate, 2.7 mM KCl, and 137 mM NaCl; pH 7.5) to 10 µg/mL, and 100 μL of the antibody-containing solution was added to each well of an ELISA plate (manufactured by Thermo Fisher Scientific, Inc., product number 468667). The solution was left to stand overnight under refrigeration, then washed 3 times with 300 μL of TBS-T (50 mM Tris-HCl, 150 mM NaCl, and 0.05% Tween 20; pH 7.5), then 300 μL of TBS containing 1.5% BSA was added, and the mixture was left to stand overnight under refrigeration.
(§2) After the TBS containing 1.5% BSA was removed from the prepared antibody-immobilized plate, 100 μL of TBS (50 mM Tris-HCl and 150 mM NaCl, pH 7.5) and 50 μL of the 7 U/L TRACP-5b solution or the 7 U/L TRACP-5a solution were added to each well, and the mixture was reacted for 1 hour under stirring (25° C., 700 rpm). After washing 3 times with 300 µL of TBS-T, 100 μL of a chromogenic substrate solution (5 mM 2-chloro-4-nitrophenyl phosphate, 109 mM MES, and 40 mM sodium tartrate; pH 6.6) to which the evaluation compound was added at a concentration of 0.1 mass % was added to each well, and the plate was left to stand at 37° C. for 1 hour. Thereafter, 50 μL of 0.5 N NaOH was added, and the absorbance (primary wavelength: 405 nm, secondary wavelength: 490 nm) was measured with a plate reader.

[2] = tested on: TRACP-5b; test: Evaluation of TRACP-5a inhibitor in EIA method; details: Table 14, antibody-immobilized plate, 0.1 mass % evaluation compound in chromogenic substrate solution, 7 U/L TRACP-5b solution, control without compound 0.2477
Description: as §1, §2

[3] = tested on: TRACP-5b; test: Test 1: evaluation of TRACP-5a inhibitor in an enzyme method; details: Table 4; 0.1 mass % evaluation compound in chromogenic substrate solution; 7 U/L TRACP-5b solution; control without compound 6.9
Description: The amount of absorbance change per minute (the amount of absorbance change per unit time during the enzymatic reaction) was determined from the absorbance change between both the time points.
(§3) On the other hand, serial dilutions of a TRACP-5b reference solution with known activity in a 22 mM MES buffer solution (pH 5.0) as well as a 22 mM MES buffer solution (pH 5.0) as a blank were prepared; the serial dilutions of the TRACP-5b reference solution were measured using the chromogenic substrate solution containing each evaluation compound, thereby producing a standard straight line for the TRACP-5b. In addition, the serial dilutions of the TRACP-5b reference solution were measured using the chromogenic substrate solution without any evaluation compound in the same manner, thereby producing a standard straight line for the TRACP-5b. The chromogenic substrate solution containing each evaluation compound and the chromogenic substrate solution without any evaluation compound were used to measure the TRACP-5b solution and the TRACP-5a solution, and these standard straight lines were used to calculate activity values from the obtained amounts of absorbance change.

[4] = molecular target: T1, TRACP-5a; test: as above; details: Table 4, 0.1 mass % evaluation compound in chromogenic substrate solution; for Activity value 5a: 7 U/L TRACP-5a solution, control without compound 6.5; for 5b/5a ratio: control without compound 1.1
Description: TRACP-5b manufactured by Nittobo Medical Co., Ltd. and TRACP-5a manufactured by R&D Systems, Inc. were diluted with a 22 mM MES buffer (pH 5.0) to prepare a 7 U/L TRACP-5b solution and a 7 U/L TRACP-5a solution, and the solutions were used as measurement samples. In the measurement with sodium hyaluronate, a 7 U/L TRACP-5b solution and an 8 U/L TRACP-5a solution prepared in the same manner were used.
A chromogenic substrate solution having the following composition was used. • 5 mM 2-chloro-4-nitrophenyl phosphate • 109 mM MES • 40 mM sodium tartrate • 0.1 mass % evaluation compound • pH 6.6
(§4) For the measurement, Hitachi automatic analyzer model 7180 (Hitachi High-Tech Corporation) was used. To 16 μL of the 7 U/L TRACP-5b solution, or the 7 U/L TRACP-5a solution or the 8 U/L TRACP-5a solution, 200 μL of the chromogenic substrate solution containing an evaluation compound was added to start an enzymatic reaction, and the absorbance (primary wavelength: 405 nm, secondary wavelength: 480 nm) was measured for 516.0 seconds starting at 340.5 seconds after the beginning of the enzymatic reaction. The amount of absorbance change per minute (the amount of absorbance change per unit time during the enzymatic reaction) was determined from the absorbance change between both the time points.
as §3
The measurement using sodium hyaluronate was performed in a separate batch from that with other evaluation compounds.

[5] = molecular target: T1, TRACP-5a; test: Test 2: study of concentration of TRACP-5a inhibitor (enzyme method); details: Table 8; for Activity value 5a: 8 U/L TRACP-5a solution, control 8.0; for 5b/5a ratio: control 0.9
Description: as §4, §3
(§5) For dextran sulfate sodium (5K), dextran sulfate sodium (50K), sodium polyvinyl sulfonate (5K), and sodium vinylsulfonate, the influence of the concentration on the inhibitory activity was studied.
(§6) The concentration of each evaluation compound in the measurement reagent (chromogenic substrate solution) was adjusted as follows.
(§7) A 7 U/L TRACP-5b solution and a 7 U/L TRACP-5a solution were used in the test using a reagent containing dextran sulfate sodium (5K) and dextran sulfate sodium (50K); a 7 U/L TRACP-5b solution and a 7 U/L or 8 U/L TRACP-5a solution were used in the test using a reagent containing sodium polyvinyl sulfonate (5K); and a 7 U/L TRACP-5b solution and an 8 U/L TRACP-5a solution were used in the test using a reagent containing sodium vinylsulfonate.
(§8) The chromogenic substrate solution having the same composition as in Test 1 was used, except that the concentration of each evaluation compound was as described above. The measurement method was carried out in the same procedure as in Test 1.

[6] = tested on: TRACP-5b; test: as above; details: Table 8, 7 U/L TRACP-5b solution, control 6.9
Description: as §4, §3, §5, §6, §7, §8

Row | Compound | 5b/5a ratio [1] | Abs. 405 nm 5a [1] | Abs. 405 nm 5b [2] | Activity value 5b [3] [U/L] | Activity value 5a [4] [U/L] | 5b/5a ratio [4] | Activity value 5a ([5]; VSA Na 0.0100 mass %) [U/L] | 5b/5a ratio ([5]; VSA Na 0.0100 mass %) | Activity value 5a ([5]; VSA Na 0.0150 mass %) [U/L] | 5b/5a ratio ([5]; VSA Na 0.0150 mass %) | Activity value 5b ([6]; VSA Na 0.0100 mass %) [U/L] | Activity value 5b ([6]; VSA Na 0.0150 mass %) [U/L] | Activity value 5a ([5]; VSA Na 0.0200 mass %) [U/L] | 5b/5a ratio ([5]; VSA Na 0.0200 mass %) | Activity value 5b ([6]; VSA Na 0.0200 mass %) [U/L]
1 | C=CS(=O)(=O)[O-].[Na+] [Example 5, Sodium vinylsulfonate] | 3.4 | 0.0775 | 0.2600 | 6.5 | 1.6 | 4.1 | 6.8 | 1.0 | 5.6 | 1.2 | 6.8 | 6.8 | – | – | –
2 | Sodium vinylsulfonate [Example 5] | – | – | – | – | – | – | – | – | – | – | – | – | 4.5 | 1.5 | 6.9
3 | β-cyclodextrin sodium sulfate [Comparative example 1, reference compound] | 2.3 | 0.0853 | 0.1971 | 6.7 | 2.3 | 2.9 | – | – | – | – | – | – | – | – | –
